Test results published in paper PMC6150295, “Synthesis and Biological Evaluation of 2H-Indazole Derivatives: Towards Antimicrobial and Anti-Inflammatory Dual Agents” (Molecules : A Journal of Synthetic Chemistry and Natural …, 2017).
Converted amounts (≈) assume the structure as drawn. Where two headings read alike, the source gives them in different places.

What was measured:
Candida glabrata = experiment: Disk diffusion susceptibility test; type: cell-based; details: for zone of inhibition at 5000 µg/disc: Nakaseomyces glabratus, read-out: Zone of inhibition at 5 mg per disc (mm) C. glabrata
[1] = tested on: Escherichia coli strain 042 (EAEC); experiment: Disk diffusion susceptibility test; type: cell-based; details: 5 mg per disc, 37 °C, 24 h
[2] = tested on: Trichomonas vaginalis strain GT3; experiment: In vitro antiprotozoal assay (trophozoite subculture method); type: cell-based; details: for IC50: Trichomonas vaginalis, GT3, trophozoites, 48 h with compound then 48 h subculture without drug, read-out: IC50 (µM) T. vaginalis
Protocol: (§1) The in vitro antiprotozoal assays against E. histolytica, G. intestinalis, and T. vaginalis of the 2-phenyl-2H-indazole and 2,3-diphenyl-2H-indazole derivatives were carried out following the method previously described. Metronidazole (MTZ) and albendazole (ABZ) were used as reference drugs. […] Similarly, compound 7, having a phenyl at position 2, has good activity against the three protozoa, ranking third in activity for T. vaginalis and forth against G. intestinalis and E. histolytica. […] These derivatives had groups H, COOCH3, Cl, and SO2CH3 at positions 2 and 3, substituents that induced the best response in 2-phenyl-2H-indazole derivatives. In addition, carboxylic acids 20 and 25 were of interest for comparative purposes with ester derivatives.
(§2) Trichomonas vaginalis strain GT3, Giardia intestinalis isolate IMSS:0981:1, and Entamoeba histolytica strain HM1-IMSS were used. Trophozoites of G. intestinalis were maintained in a TYI-S-33 medium supplemented with 10% calf serum and bovine bile. E. histolytica and T. vaginalis trophozoites were maintained in TYI-S-33 medium supplemented with 10% bovine serum. Briefly, 5 × 10^4 trophozoites of G. intestinalis or T. vaginalis, or 6 × 10^3 trophozoites of E. histolytica were incubated for 48 h at 37 °C with different concentrations of the compound to be tested, each added as solutions in DMSO. As a negative control, parasite cultures received an equivalent amount of DMSO only, while albendazole and metronidazole were included as positive controls. At the end of the treatment period, the cells were washed and subcultured for another 48 h in a fresh medium to which no drug was added. […] Experiments were carried out in triplicate and repeated at least twice.

[3] = tested on: Entamoeba histolytica strain HM1-IMSS; experiment: as above; type: cell-based; details: Entamoeba histolytica; trophozoites, 48 h with compound then 48 h subculture without drug; read-out: IC50 (µM) E. histolytica
Protocol: as §1, §2

[4] = tested on: Giardia intestinalis isolate IMSS:0981:1; experiment: as above; type: cell-based; details: for IC50: Giardia duodenalis, trophozoites, 48 h with compound then 48 h subculture without drug, read-out: IC50 (µM) G. intestinalis
Protocol: as §1, §2

Candida albicans = experiment: Disk diffusion susceptibility test; type: cell-based; details: for zone of inhibition at 5000 µg/disc: Candida albicans, read-out: Zone of inhibition at 5 mg per disc (mm) C. albicans
[5] = tested on: Escherichia coli strain EDL933 (EHEC); experiment: Disk diffusion susceptibility test; type: cell-based; details: 5 mg per disc, 37 °C, 24 h
C. albicans = experiment: Minimum inhibitory concentration (antimycotic effect); type: cell-based; details: Candida albicans
[6] = target: T1, human recombinant cyclooxygenase-2 (Homo sapiens, UniProt P35354); experiment: COX inhibitor screening assay (Cayman kit); type: biochemical; details: tested at 10 µM
T1 construct: purchased Cayman Chemical 560131
T1 sequence (P35354 18-604): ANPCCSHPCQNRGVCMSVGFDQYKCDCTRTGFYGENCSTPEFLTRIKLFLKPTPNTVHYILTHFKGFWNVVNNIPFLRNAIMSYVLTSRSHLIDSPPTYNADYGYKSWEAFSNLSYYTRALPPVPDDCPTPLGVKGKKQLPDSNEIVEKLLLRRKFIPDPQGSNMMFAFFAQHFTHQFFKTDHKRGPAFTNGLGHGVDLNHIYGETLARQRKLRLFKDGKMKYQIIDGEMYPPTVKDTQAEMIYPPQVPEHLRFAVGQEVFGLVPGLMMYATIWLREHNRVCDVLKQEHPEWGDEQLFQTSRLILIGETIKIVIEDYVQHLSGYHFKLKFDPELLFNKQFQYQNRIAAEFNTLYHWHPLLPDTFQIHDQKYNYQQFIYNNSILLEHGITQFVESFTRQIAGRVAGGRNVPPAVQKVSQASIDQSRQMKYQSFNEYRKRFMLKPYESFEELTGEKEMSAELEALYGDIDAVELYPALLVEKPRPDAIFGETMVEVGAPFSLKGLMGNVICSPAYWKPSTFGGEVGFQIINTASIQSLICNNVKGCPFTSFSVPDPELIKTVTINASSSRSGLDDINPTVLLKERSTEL
Protocol: Additionally, molecular docking studies using AutoDock Vina software (TSRI, La Jolla, CA, USA) were performed to aid in the interpretation of the experimental results. […] Nevertheless, these compounds represent an interesting starting point towards the design of new antiparasitic compounds with an additional COX-2 inhibitory property.
Assays were carried out by duplicate following the instructions provided by the manufacturer.

[7] = tested on: Salmonella enterica serovar Typhi; experiment: Disk diffusion susceptibility test; type: cell-based; details: for Inhibition (positive / none) S. Typhi: 5 mg per disc, 37 °C, 24 h
Cytotoxicity MTT assay = type: cell-based, human; details: human, 10 µM, 48 h exposure
Protocol: (§3) Biological assays on HaCaT and HeLa cell lines were conducted to gain insight into the cytotoxic effects of these derivatives on human cells, as compared with the effects observed on protozoa. Cellular viability was determined by MTT (3-(4,5-dimethylthiazol-2-yl)-2,5-diphenyltetrazolium bromide) assay. Compounds 18 and 23 were chosen considering their antiprotozoal and anticandidal effect, in addition to their COX-2 inhibitory activity. Additionally, compound 16 was considered as an unsubstituted reference.
(§4) HeLa (human cervical carcinoma) and HaCaT (immortalized human keratinocytes) cells were grown in DMEM (Invitrogen Corporation, Carlsbad, CA, USA) supplemented with 10% FBS (BioWest, Riverside, MO, USA), and maintained in standard culture conditions (37 °C, 95% humidity, and 5% CO2). Cells were allowed to grow to a density of 80% and then were harvested using sterile PBS/EDTA (pH 7.4) before starting every experiment. Cells were seeded in 96-well plates (7000 cells/well in 200 µL of DMEM). After 24 h the cells were exposed to test compounds dissolved in DMSO (J.T. Baker, Phillipsburg, NJ, USA) at different concentrations and diluted in 50 µL of DMEM, to reach 250 µL in the well. The exposure time was 48 h, and then viability was determined by MTT assay. The absorbance of formazan was determined for each well and its viability was related to the vehicle (100%). The IC50 was calculated from dose-response curve by non-linear fit using OriginPro 7.0 software (RockWare, Golden, CO, USA).

C. glabrata = experiment: Minimum inhibitory concentration (antimycotic effect); type: cell-based, Candida glabrata; details: Nakaseomyces glabratus
HaCaT cells = experiment: Cytotoxicity MTT assay; type: cell-based, human; details: Homo sapiens, HaCaT, 48 h exposure
Protocol: as §3, §4

HeLa cells = experiment: Cytotoxicity MTT assay; type: cell-based, human; details: Homo sapiens, 48 h exposure
Protocol: as §3, §4

[8] = read-out: % Viability (10 µM) HaCaT Cells
[9] = read-out: % Viability (10 µM) HeLa Cells
[10] = 16 relative to 7, 20 compared to 13
[11] = positive control, ketoconazole 50 µg

| Structure (SMILES) | Inhibition (positive / none) C. glabrata (Candida glabrata; 5 mg per disc, 37 °C, 24 h) | zone of inhibition at 5000 µg/disc (Candida glabrata) | Inhibition (positive / none) E. coli 042 [1] | IC50 [2] | IC50 [3] | IC50 [4] | Inhibition (positive / none) C. albicans (Candida albicans; 5 mg per disc, 37 °C, 24 h) | zone of inhibition at 5000 µg/disc (Candida albicans) | Inhibition (positive / none) E. coli 933 [5] | melting point | MIC (C. albicans) | inhibition at 10 µM [6] | Inhibition (positive / none) S. Typhi [7] | viability at 48 h, 10 µM (Cytotoxicity MTT assay; [8]) | viability at 48 h, 10 µM (Cytotoxicity MTT assay; [9]) | MIC (C. glabrata) | % of Inhibition of COX-2 [6] | also measured |
| --- | --- | --- | --- | --- | --- | --- | --- | --- | --- | --- | --- | --- | --- | --- | --- | --- | --- | --- |
| COC(=O)c1ccc(-c2c3ccccc3nn2-c2ccccc2)cc1 [Compound 23, Methyl 4-(2-phenyl-2H-indazol-3-yl) benzoate] | + | 4 mm | - | 0.143 ± 0.0043 µM | 0.0731 ± 0.0086 µM | 0.119 ± 0.0086 µM | + | 13 mm | - | 164.5 to 166.3 °C | 3.81 mM (≈ 1250 µg/mL) | 36.4 ± 1.7% | - | 97.8 ± 5.19% | 93.7 ± 7.48% | 15.2 mM (≈ 5000 µg/mL) |  |  |
| c1ccc(-c2c3ccccc3nn2-c2ccccc2)cc1 [Compound 16, 2,3-Diphenyl-2H-indazole] | - |  | - | 0.0573 ± 0.0026 µM | 0.303 ± 0.0105 µM | 0.0518 ± 0.0052 µM | - |  | - | 107.4 to 107.9 °C |  |  | - | 95 ± 2.44% | 93 ± 4.57% |  | Inactive | improvement in potency against T. vaginalis relative to the analog [2, 10]: two-fold; improvement in potency against G. intestinalis relative to the analog [4, 10]: two-fold; IC50 (HaCaT cells): 93.7 ± 17.3 µM; IC50 (HeLa cells): 125 ± 29.6 µM |
| COC(=O)c1ccc(-n2nc3ccccc3c2-c2ccccc2)cc1 [Compound 18, Methyl 4-(3-phenyl-2H-indazol-2-yl) benzoate] | + | 3 mm | - | 0.102 ± 0.0151 µM | 0.0502 ± 0.0022 µM | 0.0959 ± 0.0022 µM | + | 10 mm | - | 152.4 to 154.9 °C | 3.81 mM (≈ 1250 µg/mL) | 50 ± 9.49% | - | 96.2 ± 4.14% | 94.1 ± 3.31% | 15.2 mM (≈ 5000 µg/mL) |  | times more active than metronidazole against G. intestinalis ([4]; ratio of IC50 values): 12.8 times |
| CC(=O)N1CCN(c2ccc(OCC3COC(Cn4ccnc4)(c4ccc(Cl)cc4Cl)O3)cc2)CC1 (stereo not shown) [Ketoconazole, reference compound] |  |  |  |  |  |  |  |  |  |  | 0.045 mM (≈ 23.9 µg/mL) |  |  |  |  | 0.079 mM (≈ 42 µg/mL) |  | Inhibition (positive / none) C. glabrata (Candida glabrata; [11]): +; Inhibition (positive / none) C. albicans (Candida albicans; [11]): + |
| c1ccc(-n2cc3ccccc3n2)cc1 [Compound 7, 2-Phenyl-2H-indazole] | - |  | - | 0.118 ± 0.0218 µM | 0.0798 ± 0.0036 µM | 0.113 ± 0.0218 µM | - |  | - | 81.2 to 81.6 °C |  |  | + |  |  |  | Inactive | zone of inhibition at 5000 µg/disc ([7]; Salmonella enterica, TYPHI, read-out: Zone of inhibition at 5 mg per disc (mm) S. Typhi): 9 mm |
